Test results taken from patent US11655225B2, “Antimycobacterial heterocyclic amides” (Crestone, Inc., priority 2018, dated 2023).
Converted amounts (≈) assume the structure as drawn.

Tested on: M. abscessus
Assay: MIC determination, CLSI M24-A
Type: cell-based
Settings: Mycobacteroides abscessus, CLSI M24-A

Row | Compound | MIC
1 | CC12CC3CC(C)(C1)CC(C(=O)Nc1nc4ccc(F)cc4[nH]1)(C3)C2 [Example 120, N-(6-fluoro-1H-1,3-benzodiazol-2-yl)-3,5-dimethyladamantane-1-carboxamide] | 2 to 32 µg/mL (≈ 5.86 to 93.7 µM)
2 | CC1CC(C(=O)Nc2nc3c(F)cccc3s2)CC(C)(C)C1 (centres unmarked) [Example 121, N-(4-fluoro-1,3-benzothiazol-2-yl)-3,3,5-trimethylcyclohexane-1-carboxamide] | 2 to 32 µg/mL (≈ 6.24 to 99.9 µM)
3 | CC12CC3CC(C)(C1)CC(C(=O)Nc1nc4c(F)cccc4s1)(C3)C2 [Example 122, N-(4-fluoro-1,3-benzothiazol-2-yl)-3,5-dimethyladamantane-1-carboxamide] | 2 to 32 µg/mL (≈ 5.58 to 89.3 µM)
4 | CC12CC3CC(C)(C1)CC(C(=O)Nc1nc4ccc(F)cc4s1)(C3)C2 [Example 123, N-(6-fluoro-1,3-benzothiazol-2-yl)-3,5-dimethyladamantane-1-carboxamide] | 2 to 32 µg/mL (≈ 5.58 to 89.3 µM)
5 | COc1ccc2nc(NC(=O)C34CC5CC(C)(CC(C)(C5)C3)C4)sc2c1 [Example 124, N-(6-methoxy-1,3-benzothiazol-2-yl)-3,5-dimethyladamantane-1-carboxamide] | 2 to 32 µg/mL (≈ 5.4 to 86.4 µM)
6 | CC1CC(C(=O)Nc2nc3ccccc3s2)CC(C)(C)C1 (centres unmarked) [Example 125, N-(1,3-benzothiazol-2-yl)-3,3,5-trimethylcyclohexane-1-carboxamide] | 2 to 32 µg/mL (≈ 6.61 to 106 µM)
7 | O=C(Nc1nc2ccc(C(F)(F)F)cc2s1)C1CCCC(C(F)(F)F)C1 (centres unmarked) [Example 126, 3-(trifluoromethyl)-N-[6-(trifluoromethyl)-1,3-benzothiazol-2-yl]cyclohexane-1-carboxamide] | 2 to 32 µg/mL (≈ 5.05 to 80.7 µM)
8 | CC1CCCC(C(=O)Nc2nc3ccc(C(F)(F)F)cc3s2)C1 (centres unmarked) [Example 127, 3-methyl-N-[6-(trifluoromethyl)-1,3-benzothiazol-2-yl]cyclohexane-1-carboxamide] | 2 to 32 µg/mL (≈ 5.84 to 93.5 µM)
9 | CC1(C(=O)Nc2nc3ccc(C(F)(F)F)cc3s2)CCCC1 [Example 128, 1-methyl-N-[6-(trifluoromethyl)-1,3-benzothiazol-2-yl]cyclopentane-1-carboxamide] | 2 to 32 µg/mL (≈ 6.09 to 97.5 µM)
10 | C[C@]1(C(=O)Nc2nc3ccc(OC(F)(F)F)cc3s2)C[C@@H]2C=C[C@H]1C2 [Example 129, (1R,2S,4R)-2-methyl-N-[6-(trifluoromethoxy)-1,3-benzothiazol-2-yl]bicyclo[2.2.1]hept-5-ene-2-carboxamide] | 2 to 32 µg/mL (≈ 5.43 to 86.9 µM)
11 | O=C(Nc1nc2ccc(OC(F)(F)F)cc2s1)C1CCCC1 [Example 130, N-[6-(trifluoromethoxy)-1,3-benzothiazol-2-yl]cyclopentanecarboxamide] | 2 to 32 µg/mL (≈ 6.05 to 96.9 µM)
12 | O=C(Nc1nc2ccccc2o1)C1C2CC3CC(C2)CC1C3 (centres unmarked) [Example 131, N-(1,3-benzoxazol-2-yl)adamantane-2-carboxamide] | 2 to 32 µg/mL (≈ 6.75 to 108 µM)
13 | CC12CCCC(C(=O)Nc3nc4ccc(C(F)(F)F)cc4o3)(CCC1)C2 [Example 132, 5-methyl-N-[6-(trifluoromethyl)-1,3-benzoxazol-2-yl]bicyclo[3.3.1]nonane-1-carboxamide] | 2 to 32 µg/mL (≈ 5.46 to 87.3 µM)
14 | CC1(C(=O)Nc2nc3cc(F)cc(F)c3s2)CCCCC1 [Example 133, N-(5,7-difluoro-1,3-benzothiazol-2-yl)-1-methylcyclohexane-1-carboxamide] | 2 to 32 µg/mL (≈ 6.44 to 103 µM)
15 | CC1(C(=O)Nc2nc3ccc(Br)cc3s2)CCCCC1 [Example 134, N-(6-bromo-1,3-benzothiazol-2-yl)-1-methylcyclohexane-1-carboxamide] | 2 to 32 µg/mL (≈ 5.66 to 90.6 µM)
16 | CC1(C(=O)Nc2nc3ccc(Cl)cc3s2)CCCCC1 [Example 135, N-(6-chloro-1,3-benzothiazol-2-yl)-1-methylcyclohexane-1-carboxamide] | 2 to 32 µg/mL (≈ 6.48 to 104 µM)
17 | CC1(C(=O)Nc2nc3ccc(OC(F)(F)F)cc3s2)CCCC1 [Example 136, 1-methyl-N-[6-(trifluoromethoxy)-1,3-benzothiazol-2-yl]cyclopentane-1-carboxamide] | 2 to 32 µg/mL (≈ 5.81 to 92.9 µM)
18 | CC1(C(=O)Nc2nc3ccc(OC(F)(F)F)cc3s2)CC2CC2C1 (centres unmarked) [Example 137, 3-methyl-N-[6-(trifluoromethoxy)-1,3-benzothiazol-2-yl]bicyclo[3.1.0]hexane-3-carboxamide] | 2 to 32 µg/mL (≈ 5.61 to 89.8 µM)
19 | CCOc1ccc2nc(NC(=O)C3CC4CCCC(C4)C3)sc2c1 (centres unmarked) [Example 138, N-(6-ethoxy-1,3-benzothiazol-2-yl)bicyclo[3.3.1]nonane-3-carboxamide] | 2 to 32 µg/mL (≈ 5.81 to 92.9 µM)
20 | O=C(Nc1nc2c(F)cc(F)cc2s1)C1CCCCCC1 [Example 139, N-(4,6-difluoro-1,3-benzothiazol-2-yl)cycloheptanecarboxamide] | 2 to 32 µg/mL (≈ 6.44 to 103 µM)
21 | CC12CC3CC(C)(C1)CC(C(=O)Nc1nc4cc(Cl)ccc4o1)(C3)C2 [Example 140, N-(5-chloro-1,3-benzoxazol-2-yl)-3,5-dimethyladamantane-1-carboxamide] | 2 to 32 µg/mL (≈ 5.57 to 89.2 µM)
22 | O=C(Nc1nc2c(F)c(F)c(F)cc2s1)C1CCCCCC1 [Example 141, N-(4,5,6-trifluoro-1,3-benzothiazol-2-yl)cycloheptanecarboxamide] | 2 to 32 µg/mL (≈ 6.09 to 97.5 µM)
23 | CC1CC(C(=O)Nc2nc3cc(Cl)cc(Cl)c3o2)CC(C)(C)C1 (centres unmarked) [Example 142, N-(5,7-dichloro-1,3-benzoxazol-2-yl)-3,3,5-trimethylcyclohexane-1-carboxamide] | 2 to 32 µg/mL (≈ 5.63 to 90.1 µM)
24 | Cc1cc(C)c2oc(NC(=O)C3CC(C)CC(C)(C)C3)nc2c1 (centres unmarked) [Example 143, N-(5,7-dimethyl-1,3-benzoxazol-2-yl)-3,3,5-trimethylcyclohexane-1-carboxamide] | 2 to 32 µg/mL (≈ 6.36 to 102 µM)

Row | Compound | MIC
25 | CC12CC3CC(C)(C1)CC(C(=O)Nc1nc4c(F)cccc4o1)(C3)C2 [Example 144, N-(4-fluoro-1,3-benzoxazol-2-yl)-3,5-dimethyladamantane-1-carboxamide] | 2 to 32 µg/mL (≈ 5.84 to 93.5 µM)
26 | COc1ccc2nc(NC(=O)C34CC5CC(C)(CC(C)(C5)C3)C4)oc2c1 [Example 145, N-(6-methoxy-1,3-benzoxazol-2-yl)-3,5-dimethyladamantane-1-carboxamide] | 2 to 32 µg/mL (≈ 5.64 to 90.3 µM)
27 | CC12CC3CC(C)(C1)CC(C(=O)Nc1nc4ccccc4[nH]1)(C3)C2 [Example 146, N-(1H-1,3-benzodiazol-2-yl)-3,5-dimethyladamantane-1-carboxamide] | 2 to 32 µg/mL (≈ 6.18 to 98.9 µM)
28 | CC12CC3CC(C)(C1)CC(C(=O)Nc1nc4ccccc4o1)(C3)C2 [Example 147, N-(1,3-benzoxazol-2-yl)-3,5-dimethyladamantane-1-carboxamide] | 2 to 32 µg/mL (≈ 6.16 to 98.6 µM)
29 | O=C(Nc1nc2ccc(C(F)(F)F)cc2s1)C1CCCC2(CC2)C1 (centres unmarked) [Example 148, N-[6-(trifluoromethyl)-1,3-benzothiazol-2-yl]spiro[2.5]octane-5-carboxamide] | 2 to 32 µg/mL (≈ 5.64 to 90.3 µM)
30 | CC1CCCC(NC(=O)Nc2nc3ccc(C(F)(F)F)cc3s2)C1 (centres unmarked) [Example 149, 1-(3-methylcyclohexyl)-3-[6-(trifluoromethyl)-1,3-benzothiazol-2-yl]urea] | 2 to 32 µg/mL (≈ 5.6 to 89.5 µM)
31 | CC12CC3CC(C)(C1)CC(C(=O)Nc1nc4ccc(C(F)(F)F)cc4o1)(C3)C2 [Example 150, 3,5-dimethyl-N-[6-(trifluoromethyl)-1,3-benzoxazol-2-yl]adamantane-1-carboxamide] | 2 to 32 µg/mL (≈ 5.1 to 81.5 µM)
32 | CC1CC(C(=O)Nc2nc3cc(Cl)c(Cl)cc3[nH]2)CC(C)(C)C1 (centres unmarked) [Example 151, N-(5,6-dichloro-1H-1,3-benzodiazol-2-yl)-3,3,5-trimethylcyclohexane-1-carboxamide] | 2 to 32 µg/mL (≈ 5.65 to 90.3 µM)
33 | CC1CCC(C(=O)Nc2nc3ccc(C(F)(F)F)cc3s2)C1 (centres unmarked) [Example 152, 3-methyl-N-[6-(trifluoromethyl)-1,3-benzothiazol-2-yl]cyclopentane-1-carboxamide] | 2 to 32 µg/mL (≈ 6.09 to 97.5 µM)
34 | CC1(C(=O)Nc2nc3cc(Br)ccc3s2)CCCC1 [Example 153, N-(5-bromo-1,3-benzothiazol-2-yl)-1-methylcyclopentane-1-carboxamide] | 2 to 32 µg/mL (≈ 5.9 to 94.3 µM)
35 | CC1(C(=O)Nc2nc3c(F)c(F)c(F)cc3s2)CCCCC1 [Example 154, 1-methyl-N-(4,5,6-trifluoro-1,3-benzothiazol-2-yl)cyclohexane-1-carboxamide] | 2 to 32 µg/mL (≈ 6.09 to 97.5 µM)
36 | O=C(Nc1nc2ccccc2o1)C12CC3CC(CC(C3)C1)C2 [Example 155, N-(1,3-benzoxazol-2-yl)adamantane-1-carboxamide] | 2 to 32 µg/mL (≈ 6.75 to 108 µM)
37 | O=C(Nc1nc2ccc(OC(F)F)cc2s1)C1CCCCC1 [Example 156, N-[6-(difluoromethoxy)-1,3-benzothiazol-2-yl]cyclohexanecarboxamide] | 2 to 32 µg/mL (≈ 6.13 to 98 µM)
38 | O=C(Nc1nc2c(F)cc(F)cc2s1)C1CCCCC1 [Example 157, N-(4,6-difluoro-1,3-benzothiazol-2-yl)cyclohexanecarboxamide] | 2 to 32 µg/mL (≈ 6.75 to 108 µM)
39 | CC1CC(C(=O)Nc2nc3ccc(Br)cc3o2)CC(C)(C)C1 (centres unmarked) [Example 158, N-(6-bromo-1,3-benzoxazol-2-yl)-3,3,5-trimethylcyclohexane-1-carboxamide] | 2 to 32 µg/mL (≈ 5.48 to 87.6 µM)
40 | O=C(Nc1nc2ccccc2o1)C1CC2CCCC(C2)C1 (centres unmarked) [Example 159, N-(1,3-benzoxazol-2-yl)bicyclo[3.3.1]nonane-3-carboxamide] | 2 to 32 µg/mL (≈ 7.03 to 113 µM)
41 | O=C(Nc1cc2ccccc2s1)C1CCCCCC1 [Example 160, N-(1-benzothiophen-2-yl)cycloheptanecarboxamide] | 2 to 32 µg/mL (≈ 7.32 to 117 µM)
42 | Cc1cc(C)c2oc(NC(=O)C34CC5CC(C)(CC(C)(C5)C3)C4)nc2c1 [Example 161, N-(5,7-dimethyl-1,3-benzoxazol-2-yl)-3,5-dimethyladamantane-1-carboxamide] | 2 to 32 µg/mL (≈ 5.67 to 90.8 µM)
43 | COc1ccc2nc(NC(=O)C3CC(C)CC(C)(C)C3)oc2c1 (centres unmarked) [Example 162, N-(6-methoxy-1,3-benzoxazol-2-yl)-3,3,5-trimethylcyclohexane-1-carboxamide] | 2 to 32 µg/mL (≈ 6.32 to 101 µM)
44 | CC1CC(C(=O)Nc2nc3ccc(C(F)(F)F)cc3o2)CC(C)(C)C1 (centres unmarked) [Example 163, 3,3,5-trimethyl-N-[6-(trifluoromethyl)-1,3-benzoxazol-2-yl]cyclohexane-1-carboxamide] | 2 to 32 µg/mL (≈ 5.64 to 90.3 µM)
45 | CC12CC3CC(C)(C1)CC(C(=O)Nc1nc4cc(Cl)c(Cl)cc4[nH]1)(C3)C2 [Example 164, N-(5,6-dichloro-1H-1,3-benzodiazol-2-yl)-3,5-dimethyladamantane-1-carboxamide] | 2 to 32 µg/mL (≈ 5.1 to 81.6 µM)
46 | CC1CC(C(=O)Nc2nc3ccccc3o2)CC(C)(C)C1 (centres unmarked) [Example 165, N-(1,3-benzoxazol-2-yl)-3,3,5-trimethylcyclohexane-1-carboxamide] | 2 to 32 µg/mL (≈ 6.98 to 112 µM)
47 | CC1CCCCC1C(=O)Nc1nc2ccccc2s1 (centres unmarked) [Example 166, N-(1,3-benzothiazol-2-yl)-2-methylcyclohexane-1-carboxamide] | 2 to 32 µg/mL (≈ 7.29 to 117 µM)
